According to patent US20250130239A1, “PROTEIN DEGRADER” (University of Dundee, priority 2021, published 2025):

How the values were obtained:
[1] = molecular target: T1, BromoTag-Brd2 (Homo sapiens, UniProt O60885+P40337, L387A); assay: Time-course degradation assay in heterozygous BromoTag-Brd2 HEK293 cells; format: cell-based; conditions: 500 nM
T1 construct: comprising residues 368-440 of human Brd4; Brd2 (endogenous protein, fusion partner in the same polypeptide); eGFP-P2A (upstream marker in the knock-in cassette) (N, cleaved yes); expressed in transfected cells; host or cells: HEK293, heterozygous CRISPR knock-in at the endogenous BRD2 locus
T1 sequence (P40337 whole entry, other chains not shown, the tested form may be a part): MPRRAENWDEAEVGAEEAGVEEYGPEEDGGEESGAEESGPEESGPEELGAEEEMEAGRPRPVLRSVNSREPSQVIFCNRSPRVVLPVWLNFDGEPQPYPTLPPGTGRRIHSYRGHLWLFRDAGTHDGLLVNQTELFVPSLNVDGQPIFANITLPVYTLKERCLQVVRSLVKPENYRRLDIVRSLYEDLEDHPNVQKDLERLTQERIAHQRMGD
Protocol: Time-course Degradation Assay. Time-course degradation assays using PROTACs AGB1, AGB2, and AGB3 were performed on the genotype verified heterozygous BromoTag-Brd2 HEK293 cell line. Heterozygous BromoTag-Brd2 HEK293 cells were plated at a density of 5×10^5 cells per well of a 6 healthy plate a day prior to initiation of the Timecourse assay. PROTAC's AGB1 & AGB2 were diluted in DMSO to a concentration of 1 mM prior to being further diluted 1:2000 in 2 mL of DMEM to a concentration of 500 nM per timepoint. PROTAC AGB3 was diluted in DMSO to a concentration of 2 mM prior to being further diluted 1:2000 in 2 mL of DMEM to a concentration of 1 μM per timepoint. Timepoint range was between 0-36 h. Treatment was applied in a staggered fashion to enable all timepoints to be harvested at the same time.
Western Blotting. All cells were harvested on ice with RIPA lysis, and extraction buffer (ThermoFisher Scientific, 89901) supplemented with protease inhibitor cocktail (Merck, 11697498001) and Benzonase® Nuclease (Sigma, E1014) before being store at −20° C. prior to use. Total protein quantity was determined using the BCA protein assay (#23225, Pierce, Rockford, Illinois). Protein concentration was determined using the BCA assay (ThermoFisher Scientific, 23225). Samples were then prepared and loaded onto NuPAGE™ 4-12% Bis-Tris Midi gels (ThermoFisher Scientific, WG1403A), followed by the transfer of the proteins onto nitrocellulose membranes (EMD Millipore). The membranes were blocked for 1 h prior to incubation with the primary antibodies using 5% Milk TBST. Membranes were probed for Brd2 (Abcam, Ab139690, 1:1000), Brd3 (Abcam, Ab50818, 1:4000), Brd4 (Abcam, Ab128874, 1:1000) or our polyclonal Brd4^BD2 L387A antibody. […] All western blots were analysed for band intensities using Image Lab from Bio-Rad (LI-COR, Biosciences). The data extracted from these blots were then plotted and analysed using Prism (v. 8.2.0, GraphPad).

[2] = In vivo PK profiling of AGB1; design: species or system C57BL/6 male mice; conditions: SC (5 mg/kg), mice
Protocol: In Vivo PK Profiling. Pharmacokinetic profiling was outsourced and undertaken by Shanghai ChemPartner Co., Ltd. Six to eight-week-old, C57BL/6 male mice purchased from Jihui Laboratory Animal Co. LTD were used in the study. […] The animals were restrained manually at the designated time points (0.083, 0.25, 0.5, 1, 2, 4 and 8 h), approximately 110 μL of blood sample was collected via facial vein into K2EDTA tubes. Three mice per time point were used resulting in a total of […]. Blood sample was put on ice and centrifuged at 2000 g for 5 mins to obtain plasma sample within 15 min. Plasma samples were stored at approximately −70° C. until analysis. A 30 μL aliquot of plasma was added with 200 μL internal standard (Diclofenac, 40 ng/mL) in 1% formic acid in MeCN. The mixture was then vortexed for 1 min and then centrifuged for 10 min at 5800 rpm. 100 μL of supernatant was transferred to a new plate. 0.5 μL of solvent was injected to LC-MS/MS. LC-MS/MS instrument used: SCIEX LC-MS/MS-45 (Triple Quad 6500+). Data was analysed by WinNonLin and Microsoft Excel.

[3] = Plasma stability; format: in vitro ADME; conditions: mouse plasma, 37° C., over 1 h
Protocol: Plasma Stability. Plasma stability studies were outsourced and undertaken by Shanghai ChemPartner Co., Ltd. Buffer preparation: A solution of 0.05 M sodium phosphate and 0.07 M NaCl buffer at pH 7.4 was made by dissolving 14.505 g/L Na2HPO4·12H2O, 1.483 g/L NaH2PO4·2H2O and 4.095 g/L NaCl in deionized water and the pH adjusted with phosphoric acid. Plasma preparation: Frozen mouse plasma was thawed by placing at 37° C. quickly. The thawed plasma was centrifuged at 3,000 rpm for 8 min to remove clots and the supernatant was pooled to be used as the plasma in the experiment. The plasma (pH 7.4-8.0) was stored on ice until used. […] Plasma and spiking solutions were pre-warmed at 37° C. for 5 min, then 10 μL of pre-warmed spiking solution B were added into the wells designated for all the time points (5, 15, 30, 45, 60 min). For 0-min, 400 μL of acetonitrile containing internal standards (Imipramine, Glipizide) were added to the wells of 0-min plate and then 90 μL of plasma was added. For the time points (0, 5, 15, 30, 45, 60 min), 90 μL of pre-warmed plasma was added to start timing. At 5, 15, 30, 45, 60 min, 400 μL of acetonitrile containing internal standard (Imipramine, Glipizide) were added to the wells of corresponding plates, respectively, to stop the reaction. […] Data was analysed with Microsoft Excel.

## CC[C@@H](C(=O)OCCOCCOCCOCC(=O)N[C@H](C(=O)N1C[C@H](O)C[C@H]1C(=O)NCc1ccc(-c2scnc2C)cc1)C(C)(C)C)[C@@H]1N=C(c2ccc(Cl)cc2)c2c(sc(C)c2C)-n2c(C)nnc21 (single isomer, unassigned) [AGB1 (46)]
[1]
  time to completely degrade BromoTag-Brd2: ≤ 6 h
[2]
  F (%): 140%
[3]
  plasma stability, levels remaining: no significant changes
